Results as given in patent US20260182574A1 (priority 2022, published 2026).

Legend:
[1] = test system: Corynespora zeae; assay: Activity against Corynespora zeae in the microtiterplate test; type: cell-based; conditions: 31 ppm; microtiter plate
[2] = test system: Botrytis cinerea; assay: Activity against the grey mold Botrytis cinerea in the microtiterplate test; type: cell-based; conditions: 31 ppm; microtiter plate, 405 nm, 7 days after inoculation
[3] = test system: Botrytis cinerea; assay: Long lasting control of Botrytis cinerea on leaves of green pepper (green house); type: in vivo; conditions: 125 ppm; green pepper sprayed 7 days before inoculation; assessed after 5 days; untreated plants 90% infected
Method: (§1) The compound was dissolved in a mixture of acetone and/or dimethylsulfoxide and the wetting agent/emulsifier Wettol, which is based on ethoxylated alkylphenoles, in a ratio (volume) solvent-emulsifier of 99 to 1 to give a total volume of 5 ml. Subsequently, water was added to total volume of 100 ml.
(§2) This stock solution was then diluted with the described solvent-emulsifier-water mixture to the final concentration given in the table below.
Young seedlings of green pepper were grown in pots to the 4 to 5 leaf stage. These plants were sprayed to run-off with previously described spray solution, containing the concentration of active ingredient or mixture mentioned in the table below. The plants were then cultivated in the greenhouse for 7 days and then inoculated with an aqueous biomalt or DOB solution containing the spore suspension of Botrytis cinerea. Then the plants were immediately transferred to a humid chamber. After 5 days at 22 to 24 °C and a saturated relative humidity, the extent of fungal attack on the leaves was visually assessed as % diseased leaf area.

[4] = test system: Sclerotinia sclerotiorum; assay: Preventative fungicidal control of white mold on cabbage caused by Sclerotinia sclerotiorum (green house); type: in vivo; conditions: 125 ppm; cabbage sprayed 1 day before inoculation; assessed after 8 days; untreated plants 80% infected
Method: as §1, §2
Cabagges were grown in pots to the 13 to 14 leaf stage. These plants were sprayed to run-off with previously described spray solution, containing the concentration of active ingredient or their mixture mentioned in the table below. The plants could air-dry. The next day the cabbage leaves were inoculated with 50 μl of a mixture of ground petals, methylcellulose, water, and yeast-bactopeptone media (includes spores of Sclerotinia sclerotiorum). After 8 days at 21° C. and a relative humidity of 60% the extent of fungal attack on the leaves were visually assessed as % diseased leaf area.

[5] = test system: Corynespora cassiicola G413A mutant; assay: Activity against Corynespora cassiicola G413A mutant in the microtiterplate test; type: cell-based; conditions: 31 ppm; microtiter plate; G413A mutant isolates
[6] = test system: Cercospora sojina; assay: Activity against Cercospora sojina in the microtiterplate test; type: cell-based; conditions: 31 ppm; microtiter plate

Structure (SMILES)	growth of the pathogen (relative to compound-free control = 100%) [1]	growth of the pathogen (relative to compound-free control = 100%) [2]	growth of the pathogen (% diseased leaf area) [3]	growth of the pathogen (% diseased leaf area) [4]	growth of the pathogen (relative to compound-free control = 100%) [5]	growth of the pathogen (relative to compound-free control = 100%) [6]
CN1c2ccccc2C(c2cnc3c(F)cccc3c2)=NC(=O)C1(C)C [Ex-10]	8%	4%	–	–	–	–
CN1CC2(CC2)N=C(c2cnc3c(F)cccc3c2)c2cccc(F)c21 [Ex-17]	–	4%	up to 15%	up to 8%	11%	6%
CC1(C)C(=O)N=C(c2cnc3c(F)cccc3c2)c2ccccc2N1C#N [Ex-12]	–	4%	–	–	–	–
